# Test results reported in patent US12280148B2, “Composition for promoting extracellular vesicle production containing peptide derived from noxa protein and method for producing extracellular vesicles by using same” (Exocalibre Therapeutics Co., Ltd., priority 2020, dated 2025).
# Assays:
# Type in all cases: cell-based, human
# [1] = tested on: HeLa cell line; assay: Loading of propidium iodide (PI) in extracellular vesicles, confocal microscope; settings: HeLa transfected with HSP90; peptide 25 μM; 5 μg/ml PI; solution of Example 1; after 10 minutes
# Method: Propidium iodide (PI), which is a drug poorly passing through cell membranes, is a fluorescent substance capable of being used to stain cells. First, the HSP90 protein was transfected into the HeLa cell line to prepare a cell line.
# (§1) The control group was treated with only PI without any peptide, and the experiment group was treated with the eMTDΔ4 peptide (final concentration: 25 μM) and 5 μg/ml PI, which have been in combination dissolved in the solution of Example 1, and then after 10 minutes, the groups were observed by a confocal microscope.
# [2] = tested on: HeLa cell line; assay: Extracellular vesicle morphology, EGFP-HSP90 transfected cells, confocal microscope; settings: HeLa transfected with pEGFP-HSP90; solution of Example 1; 20 μM; after 10 minutes
# Method: In order to transfect the HSP90 protein, an exosome indicator, into the HeLa cell line, the HeLa cell line was cultured overnight in a 6-well plate, and then treated with a plasmid into which Effectene and pEGFP-HSP90 were cloned, and after 4 hours, the culture was replaced.
# The next day, the culture was removed from the HeLa cell line, and the solution of Example 1 was added. A control group was not treated with any peptide, and an experiment group was treated with the eMTDΔ4 peptide of SEQ ID NO: 2 (final concentration: 20 μM). The HSP90 protein was excited using an argon laser of 488 nm. After 10 minutes, the control group and the experiment group were observed using a confocal microscope (Leica TCS SP5 Microsystems), and the results are shown in FIG. 4.
# [3] = tested on: HeLa cell line; assay: Loading of doxorubicin in extracellular vesicles, confocal microscope; settings: HeLa expressing EGFP-HSP90; peptide 25 μM; doxorubicin 100 μM; solution of Example 1; after 10 minutes
# Method: Doxorubicin, which is a drug passing through cell membranes well, is used to treat cancers, such as breast cancer, bladder cancer, Kaposi's sarcoma, lymphoma, or acute lymphoblastic leukemia. First, the HeLa cell line was cultured in a 12-well plate overnight, then transfected with a plasmid expressing EGFP-HSP90 using effectene, and then the culture was replaced after 4 hours. The next day, the culture was removed from the HeLa cell line to prepare a cell line.
# as §1, with “doxorubicin” for “PI”, “doxorubicin (final concentration: 100 μM),” for “5 μg/ml PI,”, “been” for “been in combination”
# [4] = tested on: 293-HEK cell line; assay: Extracellular vesicle output quantified by Bradford solution
# Method: The 293-HEK cell line was cultured in a 6-well plate at a rate of 2×10^5 cells/mL, and the next day, the cell line was treated with the solution of Example 1 and a peptide of any one of SEQ ID NOs: 1 to 21. […], the solution was removed, followed by centrifugation at an RCF of 12000, and the extracellular vesicles were quantified using the supernatant by Bradford solution.
# [5] = tested on: HeLa cell line; assay: Production of extracellular vesicles, observed by optical microscope (bright field); settings: solution of Example 1 (250 mM sucrose), peptide final concentration 20 μM, after 10 minutes
# Method: After the HeLa cell line was cultured in a 6-well plate, the culture was removed, and then the HeLa cell line was treated with the solution in Example 1.
# The control group was not treated with any peptide, and the experiment group was treated with eMTDΔ4 peptide of SEQ ID NO: 2 (final concentration: 20 μM). After 10 minutes, the generation of extracellular vesicles was observed by an optical microscope (bright field), and the observation results are shown in FIG. 1.
# Extracellular vesicle production was carried out by the experimental method of Experimental Example 2-1 using the R(8):MTD peptide of SEQ ID NO: 4 and the solutions of Example 1 and Comparative Examples 1 to 18, and the results are shown in FIGS. 2A to 2S.
# Extracellular vesicle production was carried out by the experimental method of Example 2-1 using the R(8):MTD peptide of SEQ ID NO: 4 and the solutions of Examples 1 to 3 on Table 3, and the results are shown in FIGS. 3A to 3C.
# [6] = tested on: HeLa cell line; assay: Extracellular vesicle production, mEmerald-CD9 / mCherry-CD81 transfected cells, confocal imaging every 2 seconds; settings: solution of Example 1, 20 μM
# Method: The HeLa cell line was cultured in a 12-well plate overnight, and in order to identify the CD9 protein, an extracellular vesicle indicator, the HeLa cell line was treated with a plasmid into which Effectene and mEmerald-CD9 were cloned, and after 4 hours, the culture was replaced.
# The next day, the culture was removed from the HeLa cell line, and the HeLa cell line was treated with the solution of Example 1. After each HeLa cell line was treated with the eMTDΔ4 peptide (final concentration: 20 μM), a laser having a wavelength of 488 nm was used to excite mEmerald-CD9.
# In order to identify the CD81 protein, an extracellular vesicle indicator, the same procedure as in the method for observing the CD9 protein was performed except that the HeLa cells were treated with a plasmid into which mCherry-CD81 instead of mEmerald-CD9 was cloned and mCherry-CD81 was excited using a laser having a wavelength of 561 nm, and the results are shown in FIG. 5B.
# [7] = tested on: 293-HEK cell line; assay: Extracellular vesicle size and quantity by Nanoparticle Tracking Analysis (NTA); settings: 50-fold diluted, solution of Example 1, peptide 20 μm, after 20 minutes
# Method: After the 293-HEK cell line was cultured to 90% confluency (about 2×10^7 cells) in a 10-cm culture dish, the culture was removed, and the cells were treated with the eMTDΔ4 peptide (final concentration: 20 μm), which has been dissolved in 5 ml of the solution of Example 1. After 20 minutes, the solution was removed, followed by centrifugation at an RCF of 12000, and then the size and quantity of extracellular vesicles were measured using a Nanoparticle Tracking Analysis (NTA) system (Nanosight LM10, Malvern Instruments).
# [8] = tested on: 293-HEK cell line; assay: Loading of plasmid DNA in extracellular vesicles, agarose gel electrophoresis; settings: peptide 25 μM, PUC19 3 μg/ml, EGFP-C1 6 μg/ml, solution of Example 1
# Method: After the 293-HEK cell line was cultured to 90% confluency in a 6-well plate, the culture was removed, and the cell line was treated with the eMTDΔ4 peptide (final concentration: 25 μM) and plasmid DNA (PUC19 3 μg/ml, EGFP-C1 6 μg/ml), which have been dissolved in the solution of Example 1.
# 1.15 ml of the supernatant was collected and 0.35 ml of Qiagen buffer P3 was added, thereby making a total volume of 1.5 ml, of which 0.75 ml was then passed through the DNA miniprep column (Qiagen), and the passed solution was purified with phenol and precipitated with ethanol.
# After 30 μl of DNA bound to the column and 30 μl of DNA precipitated with ethanol were dissolved in water, 10 μl of DNA bound to the column and 10 μl of DNA precipitated with ethanol were subjected to agarose gel electrophoresis, and then stained with EtBr.
# [9] = tested on: 293-HEK cell line; assay: Loading of recombinant TRAIL protein in extracellular vesicles, SDS-acrylamide gel; settings: Recombinant TRAIL + (2 μg/ml), Peptide + (25 μM), solution of Example 1
# Method: After the 293-HEK cell line was cultured to 90% confluency in a 6-well plate, the culture was removed, and the cell line was treated with the eMTDΔ4 peptide (final concentration: 25 μM) and the recombinant TRAIL, which have been dissolved to concentrations of 25 μM and 2 μg/ml in the solution of Example 1, respectively. The supernatant was collected, and PEG (final concentration: 8%) was added, followed by centrifugation at an RCF of 12000 for 10 minutes, thereby settling extracellular vesicles, and the extracellular vesicles were loaded on the SDS-acrylamide gel to check the TRAIL protein.
sequence,measurement,setting,value
"KLNFRQKLLNLISKLF (eMTDdelta4) [eMTDΔ4, Noxa protein-derived peptide, 16aa]",loading of propidium iodide (PI) in extracellular vesicles,[1],the generated extracellular vesicles contained PI as well as the HSP90 protein
same,cell morphology,[2],the cell morphology was damaged
same,extracellular vesicles containing HSP90 protein,[2],extracellular vesicles containing the HSP90 protein were settled on the bottom of the plate
same,loading of doxorubicin in extracellular vesicles,[3],the generated extracellular vesicles contained doxorubicin as well as the HSP90 protein
same,Amount of proteins contained in extracellular vesicles,"[4]; solution of Example 1, peptide 10 μM",4.93 µg/µL
same,Amount of proteins contained in extracellular vesicles,"[4]; solution of Example 1, peptide 20 μM",6.40 µg/µL
same,Amount of proteins contained in extracellular vesicles,"[4]; solution of Example 1, peptide 40 μM",7.56 µg/µL
same,generation of extracellular vesicles,[5],small extracellular vesicle particles were formed and settled on the bottom of the plate
same,time to release of extracellular vesicles to the extracellular matrix,[6],within a few seconds after generation
same,release of CD9 and CD81 proteins (extracellular vesicle indicators),[6]; observed for 10 minutes,CD9 and CD81 proteins were released into the extracellular matrix
same,Quantity of extracellular vesicles,[7],7.44e+08 ± 6.51e+07 mL⁻¹
same,loading of plasmid DNA in extracellular vesicles,[8],can be loaded in the extracellular vesicles
same,Protein detected or not (TRAIL in extracellular vesicles),[9],◯
